Experimental findings from EP4755403A1, “ANTI-PSMA ANTIBODY-DRUG CONJUGATE AND PHARMACEUTICAL USE THEREOF” (Jiangsu Hengrui Pharmaceuticals Co., Ltd., priority 2023, dated 2025) are described below.

SMILES strings stand for the structures.

Common to all, as to test: Cell killing activity of ADC molecules (CellTiter-Glo)
Format in all cases: cell-based, human
Common to all, as to settings: 5 days
On the technique in general: In ATP-based viability assays light output follows the ATP content of the culture.

Experiment [1] relates to 22RV1 cells. On the procedure: (§1) LNCaP (ATCC, CRL-1740), 22RV1 (ATCC, CRL-2505), and PC-3 (ATCC, CRL-1435) cells were digested with trypsin, neutralized with a fresh medium, centrifuged at 1000 rpm, and then resuspended in a medium. After the cells were counted, the density of the cell suspensions was adjusted to […], and the cells were plated onto a 96-well plate. The adjusted cell suspension (135 µL) was added to each well with […]. Only the middle 60 wells were used for plating, and six wells in the twelfth column were taken as pure medium controls without cells. An equal volume of PBS was added to the other wells. The cells were incubated at 37 °C with 5% CO2 for 16 h.
(§2) Then 20 µL of the dilution was added to the cell plate described above, and the plate was incubated in an incubator (37 °C, 5% CO2) for 5 days. […] Subsequently, 9-point serial dilutions at a 1:3 ratio were performed with PBS. Then 1 µL of the dilution was added to 20 µL of RPMI-1640, and the mixture was transferred to a 96-well cell culture plate. The plate was incubated in an incubator (37 °C, 5% CO2) for 5 days. In the 96-well cell culture plate, 80 µL of the CellTiter-Glo reagent was added to each well, and the plate was left to stand in the dark at room temperature for 10-15 min. The chemiluminescence signal values were read on Victor3, and the data were processed using GraphPad software.
(§3) On the fifth day, the culture plate was taken out and allowed to return to room temperature. The CellTiter-Glo assay solution (75 µL) was added to each well, and the plate was left to stand in the dark at room temperature for 10 min. A Backseal membrane was attached to the bottom of the cell culture plate. The plate was placed on a microplate reader Victor 3, and luminescence signal values were read. Curve fitting was performed according to the log values of concentrations of the test compounds to the corresponding signal values using Graphpad Prism software, and IC50 values were calculated. The maximum value of killing was defined as the maximum killing rate (Imax) of the compound. The killing rate was calculated as follows: [formula]

The subject of experiment [2] is LNCaP cells. On the procedure: as §1, §2, §3
Experiment [3] relates to PC-3 cells. On the procedure: as §1, §2, §3
[4] abbreviates: Homo sapiens, 120 h, read-out: IC50 (killing effect).

For the compound `CC[C@@]1(O)C(=O)OCc2c1cc1n(c2=O)Cc2c-1nc1cc(F)c(C)c3c1c2[C@@H](NC(=O)[C@H](O)C1CC1)CC3` [Compound 2-B], the entries for the “Imax (maximum killing rate)” value in experiment [1], in experiment [2] and in experiment [3] were 98.07%, 97.13% and 92.78%, respectively. For the same compound, the figures for the IC50 in experiment [1] (setting [4]), in experiment [2] (setting [4]) and in experiment [3] (setting [4]) were 0.534 nM, 0.535 nM and 1.54 nM, respectively.

What is called IC50 is the concentration that inhibits the measured activity by half.
